Tested on: human elastin promoter
Experiment: human elastin promoter activity by CAT assay in transgenic mouse fibroblast cultures exposed to hypoxanthine/xanthine oxidase
Assay type: cell-based
Conditions: 10,000 U/ml catalase added just prior to hypoxanthine and xanthine oxidase exposure
Text: Fibroblasts derived from the skin of a homozygous line of transgenic mice expressing the 5.2-kb human elastin promoter, linked to a CAT reporter gene which enables measurement of elastin promoter activation, as previously described (Bernstein et al. J Invest Dermatol 105, 269-273, 1995; and Bernstein et al. Photochem Photobiol 64:369-74, 1996) were utilized. Although phenotypically normal, these mice express the human elastin promoter when assayed for CAT activity (Hsu-Wong et al. J. Biol. Chem. 269: 18072-18075, 1994; Bernstein et al. J Invest Dermatol 105, 269-273, 1995; and Bernstein et al. Photochem Photobiol 64:369-74, 1996). […]
DMEM with 10% FCS was removed, cells were rinsed in phosphate buffered saline (PBS), and DMEM was replaced without the addition of FCS. […] The optimum time span for incubation of cells with hypoxanthine/xanthine oxidase was determined by exposing cells to hypoxanthine/xanthine oxidase for 15, 30, 60, 90 and 120 minutes and determining CAT activity as outlined in Example 3. […]
To measure the expression of the human elastin promoter/CAT reporter gene construct in the skin of transgenic mice and in fibroblast cultures established from these animals, CAT activity was determined. […]

effect on the hypoxanthine/xanthine oxidase-induced increase in elastin promoter activity: fully eliminated this increase
human elastin promoter activity (CAT assay), fold of untreated controls (mean±sem) (90 minutes): 1.0±0.1 fold
Substance: catalase

From US6753146B1, “System and method for evaluating agents which prevent oxidative damage” (priority 1999, dated 2004)
